Source: patent US20220347305A1, “CONTROLLED RELEASE DRUG DIMERS” (Ripple Therapeutics Corporation, priority 2019, published 2022)

Tests used:
[1] = Drug release and erosion of Compound 1 heat-molded pellets in release buffer (PBS, 1% FBS in PBS, 100% FBS); format: physicochemical; conditions: 37° C., 115 rpm
Experimental: Heat-molded pellets from Compound 1 (˜1 mm×1 mm) were then placed in 20 mL glass vials and 2 mL of release buffer (either 100% phosphate buffered saline (PBS), 1% fetal bovine serum (FBS) in PBS, or 100% FBS) was added. Samples were incubated at 37° C. on a shaker rotating at 115 rpm. After 1 day, 3 days, 7 days, and subsequently in alternating 3 and 4 day intervals (i.e., 1, 3, 7, 10, 14 days etc.), release buffer was sampled directly (PBS) or syringe filtered, proteins were precipitated with acetonitrile, and drug release products were extracted. The samples were analyzed by high performance liquid chromatography (HPLC) to quantify drug products. Cumulative drug release was calculated and plotted as a percentage of the total drug in each pellet released over time (FIG. 1E).

[2] = Pellet formation by heat molding (heat processing of compounds); format: physicochemical; conditions: processed ~10-30° C. above Tg or Tm, pressed into cylindrical mold ~1 mm x 1 mm, light microscopy
Experimental: Crystalline powder was melted at 185° C. and pellets were formed from 1 mm×1 mm cylindrical molds. The starting powder and heat-processed pellets were tested by differential scanning calorimetry (DSC; FIG. 1C) and X-ray powder diffraction (XRPD; FIG. 1D) to confirm heat-processing converted Compound 1 from the crystalline state to the glassy state.
Compounds that were collected as stable powders and/or gums were investigated for pellet formation by heat molding. Compounds were processed at a temperature ˜10-30° C. above their corresponding thermal transitions (glass transition temperature (Tg) for gums or amorphous powders or melting point (Tm) for crystalline powders) and pressed into a cylindrical mold of ˜1 mm in height×1 mm in diameter. Light microscopy was used to capture images of the heat-formed pellets. Temperatures used to achieve a melt for heat molding were in a range from 70° C. to 220° C.

[3] = Drug release from heat-molded pellets in phosphate buffered saline; format: physicochemical; conditions: 37° C.; for Observation of pellet after 1-day incubation in release buffer: 4 mL PBS, shaker 115 rpm
Experimental: Drug release from heat-molded pellets of the compounds were assessed in phosphate buffered saline (PBS). Heat-molded pellets were placed in 20 ml glass vials and 2 ml of release buffer was added. Samples were incubated at 37° C. with constant agitation at 115 rpm. Release buffer was sampled and fully replaced with 2 ml of fresh buffer on days 1, 3, 7, 10, and 14. Samples were analyzed by high performance liquid chromatography (HPLC) to quantify drug products. Cumulative release was calculated as a percentage of total mass of starting pellets and was plotted over time.
Heat molded pellets of Compound 3, Compound 5, and Compound 8 were then placed in 20 mL glass vials and 4 mL of release buffer (phosphate buffered saline, PBS) was added. Samples were incubated at 37° C. on a shaker rotating at 115 rpm. […] Drug release from Compound 8 was assessed by HPLC from PBS release buffer weekly for 8 weeks with full buffer change at each time point.

## C[C@@H]1C[C@H]2[C@@H]3CCC4=CC(=O)C=C[C@]4(C)[C@@]3(F)[C@@H](O)C[C@]2(C)[C@@]1(O)C(=O)COC(=O)OCCOCCOCCOC(=O)OCC(=O)[C@@]1(O)[C@H](C)C[C@H]2[C@@H]3CCC4=CC(=O)C=C[C@]4(C)[C@@]3(F)[C@@H](O)C[C@@]21C [Compound 1, Dexamethasone-Triethylene Glycol-Dexamethasone]
[1]
  Erosion of pellets over time (representative images): surface erosion over time
[2]
  Pellet formation by heat molding and handling properties of the pellet: formed into pellets in the glassy state

## O=C(OCCCCCCCOC(=O)N1CCCN(S(=O)(=O)c2cccc3cnccc23)CC1)N1CCCN(S(=O)(=O)c2cccc3cnccc23)CC1 [Compound 3, heptane-1,7-diyl bis(4-(isoquinolin-5-ylsulfonyl)-1,4-diazepane-1-carboxylate)]
[2]
  Pellet formation by heat molding and handling properties of the pellet: successfully formed glassy, mostly transparent pellets
[3]
  Observation of pellet after 1-day incubation in release buffer: pellet shape changed to a clear gel

## O=C(CCCCCCCCC(=O)N1CCCN(S(=O)(=O)c2cccc3cnccc23)CC1)N1CCCN(S(=O)(=O)c2cccc3cnccc23)CC1 [Compound 5, 1,10-bis(4-(isoquinolin-5-ylsulfonyl)-1,4-diazepan-1-yl)decane-1,10-dione]
[2]
  Pellet formation by heat molding and handling properties of the pellet: successfully formed glassy, mostly transparent pellets
[3]
  Observation of pellet after 1-day incubation in release buffer: fragmented entirely to opaque particulates

## N[C@@H](Cc1ccc(O)c(O)c1)C(=O)OCC1CCC(COC(=O)[C@@H](N)Cc2ccc(O)c(O)c2)CC1 (stereo partly drawn) [Compound 6, cyclohexane-1,4-diylbis(methylene) (2S,2′S)-bis(2-amino-3-(3,4-dihydroxyphenyl)propanoate)]
other
  melting point: 161 to 166 °C

## COc1ccc2c(c1)c(CC(=O)OCCOCCOCCOC(=O)Cc1c(C)n(C(=O)c3ccc(Cl)cc3)c3ccc(OC)cc13)c(C)n2C(=O)c1ccc(Cl)cc1 [Compound 8, (ethane-1,2-diylbis(oxy))bis(ethane-2,1-diyl) bis(2-(1-(4-chlorobenzoyl)-5-methoxy-2-methyl-1H-indol-3-yl)acetate)]
other
  melting point: 102 °C
[2]
  Pellet formation by heat molding and handling properties of the pellet: formed opaque yellow-tinted pellets that could be handled
[3]; PBS release buffer, weekly for 8 weeks with full buffer change
  Drug release from pellet assessed by HPLC: Minimal drug release

## C=CCN1CC[C@]23c4c5ccc(OC(=O)CCCCC(=O)Oc6ccc7c8c6O[C@H]6C(=O)CC[C@@]9(O)[C@@H](C7)N(CC=C)CC[C@]869)c4O[C@H]2C(=O)CC[C@@]3(O)[C@H]1C5 [Compound 9, bis((4R,4aS,7aR,12bS)-3-allyl-4a-hydroxy-7-oxo-2,3,4,4a,5,6,7,7a-octahydro-1H-4,12-methanobenzofuro[3,2-e]isoquinolin-9-yl) adipate]
other
  melting point: 120 °C

## O=C(CCCCC(=O)Oc1ccc2c3c1O[C@H]1C(=O)CC[C@@]4(O)[C@@H](C2)N(CC2CC2)CC[C@]314)Oc1ccc2c3c1O[C@H]1C(=O)CC[C@@]4(O)[C@@H](C2)N(CC2CC2)CC[C@]314 [Compound 10, bis((4R,4aS,7aR,12bS)-3-(cyclopropylmethyl)-4a-hydroxy-7-oxo-2,3,4,4a,5,6,7,7a-octahydro-1H-4,12-methanobenzofuro[3,2-e]isoquinolin-9-yl) adipate]
[2]
  Pellet formation by heat molding and handling properties of the pellet: didn't form a viscous liquid that could be pressed into a pellet

## O=C(Oc1ccc2c3c1O[C@H]1C(=O)CC[C@@]4(O)[C@@H](C2)N(CC2CC2)CC[C@]314)c1ccc(C(=O)Oc2ccc3c4c2O[C@H]2C(=O)CC[C@@]5(O)[C@@H](C3)N(CC3CC3)CC[C@]425)cc1 [Compound 16, bis((4R,4aS,7aR,12bS)-3-(cyclopropylmethyl)-4a-hydroxy-7-oxo-2,3,4,4a,5,6,7,7a-octahydro-1H-4,12-methanobenzofuro[3,2-e]isoquinolin-9-yl) terephthalate]
[2]; listed as Naltrexone-1,4-terephthalate-Naltrexone
  Pellet formation by heat molding and handling properties of the pellet: did not form a heat processed pellet
